Reference: US20230321287A1, “RADIOLABELLED GRPR-ANTAGONIST FOR USE AS THERAGNOSTIC” (NOVARTIS AG, priority 2019, published 2023)

Columns and labels:
[1] = molecular target: T1, GRPR (Homo sapiens, UniProt P30550); settings: non-clinical models; cited from earlier work
Target sequence in this assay (P30550 whole entry, species assumed): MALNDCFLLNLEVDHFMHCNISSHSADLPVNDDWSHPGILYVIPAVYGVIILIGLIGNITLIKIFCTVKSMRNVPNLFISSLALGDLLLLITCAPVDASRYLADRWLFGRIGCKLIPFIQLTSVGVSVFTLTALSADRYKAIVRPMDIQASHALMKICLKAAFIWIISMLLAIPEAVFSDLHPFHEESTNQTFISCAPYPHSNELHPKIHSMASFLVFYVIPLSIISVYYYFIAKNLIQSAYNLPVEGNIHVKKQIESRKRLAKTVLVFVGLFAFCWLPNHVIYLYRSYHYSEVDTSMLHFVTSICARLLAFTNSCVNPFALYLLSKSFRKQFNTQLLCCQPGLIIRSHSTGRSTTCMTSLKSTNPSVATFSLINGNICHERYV

[2] = 6 patients with GIST; cited from earlier work
[3] = in vivo
[4] = molecular target: T1, GRPR; test: lesion-level analysis, [68Ga]-NeoB PET versus conventional imaging; format: in vivo; parameters: from tissue; host or cells: tumour lesions in patients (breast, prostate, colorectal, NSCL, SCL cancer), in vivo
Description: PET/CT or PET/MRI imaging is performed after the compound 1 administration ideally at 2 h 30 min ±30 min.
The spleen is the reference region to assess pathological [68Ga]-NeoB uptake.
NeoB in patients with malignancies known to overexpress GRPR.
Target sequence in this assay (P30550 whole entry): as the sequence (P30550 whole entry, species assumed) above

[5] = clinical; settings: human
From the text: To obtain SUVmean aorta, a spherical volume with a diameter of two (2) cm should be measured within the aortic arch. All SUVr values above one (1) are considered as positive GRPR overexpression.
SUVr is the ratio between SUV mean of each lesion detected by [^68Ga]-NeoBOMB1 and the SUVmean of the region of reference.

In the case of `CC(C)CC(CC(C)C)NC(=O)[C@H](Cc1cnc[nH]1)NC(=O)CNC(=O)[C@@H](NC(=O)[C@H](C)NC(=O)[C@H](Cc1c[nH]c2ccccc12)NC(=O)[C@H](CCC(N)=O)NC(=O)[C@@H](Cc1ccccc1)NC(=O)COCC(=O)Nc1ccc(CNC(=O)CN2CCN(CC(=O)O)CCN(CC(=O)O)CCN(CC(=O)O)CC2)cc1)C(C)C` [[68Ga]-NeoB, metal not drawn], the “internalization upon binding to the specific receptor” value [1] is given as “low degree of internalization”, the “effective dose, mean” value [2] is given as 0.029 ± 0.06 mSv/MBq and the “calculated human dose extrapolated from animal model” value [3] is given as 0.039 mSv/MBq. For the same compound, the Number of lesions ([4]; Breast N=5, [68Ga]-NeoB Negative, conventional imaging Positive) was 44, the Number of lesions ([4]; Breast N=5, [68Ga]-NeoB Negative, conventional imaging Total) was 44 and the Number of lesions ([4]; Breast N=5, [68Ga]-NeoB Positive, conventional imaging Negative) was 37. It also gave a Number of lesions ([4]; Breast N=5, [68Ga]-NeoB Positive, conventional imaging Positive) of 48, a Number of lesions ([4]; Breast N=5, [68Ga]-NeoB Positive, conventional imaging Total) of 85 and a Number of lesions ([4]; Breast N=5, [68Ga]-NeoB Total, conventional imaging Negative) of 37. For the same compound, the Number of lesions ([4]; Breast N=5, [68Ga]-NeoB Total, conventional imaging Positive) was 92, the Number of lesions ([4]; Breast N=5, [68Ga]-NeoB Total, conventional imaging Total) was 129 and the “lesions identified by conventional imaging also identified by [68Ga]-NeoB” value (shortened to “lesions identified”) ([4]; Breast cancer N=5) was 52.2%. The Number of lesions ([4]; Colorectal N=5, [68Ga]-NeoB Negative, conventional imaging Positive) was 43, the Number of lesions ([4]; Colorectal N=5, [68Ga]-NeoB Negative, conventional imaging Total) was 43 and the Number of lesions ([4]; Colorectal N=5, [68Ga]-NeoB Positive, conventional imaging Negative) was 0. The Number of lesions ([4]; Colorectal N=5, [68Ga]-NeoB Positive, conventional imaging Positive) was 18, the Number of lesions ([4]; Colorectal N=5, [68Ga]-NeoB Positive, conventional imaging Total) was 18 and the Number of lesions ([4]; Colorectal N=5, [68Ga]-NeoB Total, conventional imaging Negative) was 0. For the same compound, the Number of lesions ([4]; Colorectal N=5, [68Ga]-NeoB Total, conventional imaging Positive) was 61, the Number of lesions ([4]; Colorectal N=5, [68Ga]-NeoB Total, conventional imaging Total) was 61 and the “lesions identified” value ([4]; Colorectal cancer N=5) was 29.5%. The Number of lesions ([4]; NSCL N=3, [68Ga]-NeoB Negative, conventional imaging Positive) was 20, the Number of lesions ([4]; NSCL N=3, [68Ga]-NeoB Negative, conventional imaging Total) was 20 and the Number of lesions ([4]; NSCL N=3, [68Ga]-NeoB Positive, conventional imaging Negative) was 0. It also gave a Number of lesions ([4]; NSCL N=3, [68Ga]-NeoB Positive, conventional imaging Positive) of 10, a Number of lesions ([4]; NSCL N=3, [68Ga]-NeoB Positive, conventional imaging Total) of 10 and a Number of lesions ([4]; NSCL N=3, [68Ga]-NeoB Total, conventional imaging Negative) of 0. The Number of lesions ([4]; NSCL N=3, [68Ga]-NeoB Total, conventional imaging Positive) was 30, the Number of lesions ([4]; NSCL N=3, [68Ga]-NeoB Total, conventional imaging Total) was 30 and the “lesions identified” value ([4]; NSCL cancer N=3) was 33.3%. For the same compound, the Number of lesions ([4]; Prostate N=5, [68Ga]-NeoB Negative, conventional imaging Positive) was 59, the Number of lesions ([4]; Prostate N=5, [68Ga]-NeoB Negative, conventional imaging Total) was 59 and the Number of lesions ([4]; Prostate N=5, [68Ga]-NeoB Positive, conventional imaging Negative) was 1. It also gave a Number of lesions ([4]; Prostate N=5, [68Ga]-NeoB Positive, conventional imaging Positive) of 10, a Number of lesions ([4]; Prostate N=5, [68Ga]-NeoB Positive, conventional imaging Total) of 11 and a Number of lesions ([4]; Prostate N=5, [68Ga]-NeoB Total, conventional imaging Negative) of 1. For the same compound, the Number of lesions ([4]; Prostate N=5, [68Ga]-NeoB Total, conventional imaging Positive) was 69, the Number of lesions ([4]; Prostate N=5, [68Ga]-NeoB Total, conventional imaging Total) was 70 and the “lesions identified” value ([4]; Prostate cancer N=5) was 14.5%. It also gave a Number of lesions ([4]; SCL N=1, [68Ga]-NeoB Negative, conventional imaging Positive) of 1, a Number of lesions ([4]; SCL N=1, [68Ga]-NeoB Negative, conventional imaging Total) of 1 and a Number of lesions ([4]; SCL N=1, [68Ga]-NeoB Positive, conventional imaging Negative) of 0. The Number of lesions ([4]; SCL N=1, [68Ga]-NeoB Positive, conventional imaging Positive) was 1, the Number of lesions ([4]; SCL N=1, [68Ga]-NeoB Positive, conventional imaging Total) was 1 and the Number of lesions ([4]; SCL N=1, [68Ga]-NeoB Total, conventional imaging Negative) was 0. The Number of lesions ([4]; SCL N=1, [68Ga]-NeoB Total, conventional imaging Positive) was 2, the Number of lesions ([4]; SCL N=1, [68Ga]-NeoB Total, conventional imaging Total) was 2 and the “lesions identified” value ([4]; SCL cancer N=1) was 50%. It also gave a Number of lesions ([4]; overall cancer N=19, Nodal, [68Ga]-NeoB Negative, conventional imaging Positive) of 36, a Number of lesions ([4]; overall cancer N=19, Nodal, [68Ga]-NeoB Negative, conventional imaging Total) of 36 and a Number of lesions ([4]; overall cancer N=19, Nodal, [68Ga]-NeoB Positive, conventional imaging Negative) of 1. For the same compound, the Number of lesions ([4]; overall cancer N=19, Nodal, [68Ga]-NeoB Positive, conventional imaging Positive) was 18, the Number of lesions ([4]; overall cancer N=19, Nodal, [68Ga]-NeoB Positive, conventional imaging Total) was 19 and the Number of lesions ([4]; overall cancer N=19, Nodal, [68Ga]-NeoB Total, conventional imaging Negative) was 1. For the same compound, the Number of lesions ([4]; overall cancer N=19, Nodal, [68Ga]-NeoB Total, conventional imaging Positive) was 54, the Number of lesions ([4]; overall cancer N=19, Nodal, [68Ga]-NeoB Total, conventional imaging Total) was 55 and the Number of lesions ([4]; overall cancer N=19, Overall, [68Ga]-NeoB Negative, conventional imaging Positive) was 167. It also gave a Number of lesions ([4]; overall cancer N=19, Overall, [68Ga]-NeoB Negative, conventional imaging Total) of 167, a Number of lesions ([4]; overall cancer N=19, Overall, [68Ga]-NeoB Positive, conventional imaging Negative) of 38 and a Number of lesions ([4]; overall cancer N=19, Overall, [68Ga]-NeoB Positive, conventional imaging Positive) of 87. For the same compound, the Number of lesions ([4]; overall cancer N=19, Overall, [68Ga]-NeoB Positive, conventional imaging Total) was 125, the Number of lesions ([4]; overall cancer N=19, Overall, [68Ga]-NeoB Total, conventional imaging Negative) was 38 and the Number of lesions ([4]; overall cancer N=19, Overall, [68Ga]-NeoB Total, conventional imaging Positive) was 254. The Number of lesions ([4]; overall cancer N=19, Overall, [68Ga]-NeoB Total, conventional imaging Total) was 292, the Number of lesions ([4]; overall cancer N=19, Skeletal, [68Ga]-NeoB Negative, conventional imaging Positive) was 85 and the Number of lesions ([4]; overall cancer N=19, Skeletal, [68Ga]-NeoB Negative, conventional imaging Total) was 85. It also gave a Number of lesions ([4]; overall cancer N=19, Skeletal, [68Ga]-NeoB Positive, conventional imaging Negative) of 12, a Number of lesions ([4]; overall cancer N=19, Skeletal, [68Ga]-NeoB Positive, conventional imaging Positive) of 17 and a Number of lesions ([4]; overall cancer N=19, Skeletal, [68Ga]-NeoB Positive, conventional imaging Total) of 29. It also gave a Number of lesions ([4]; overall cancer N=19, Skeletal, [68Ga]-NeoB Total, conventional imaging Negative) of 12, a Number of lesions ([4]; overall cancer N=19, Skeletal, [68Ga]-NeoB Total, conventional imaging Positive) of 102 and a Number of lesions ([4]; overall cancer N=19, Skeletal, [68Ga]-NeoB Total, conventional imaging Total) of 114. For the same compound, the Number of lesions ([4]; overall cancer N=19, Skin/Superficial, [68Ga]-NeoB Negative, conventional imaging Positive) was 1, the Number of lesions ([4]; overall cancer N=19, Skin/Superficial, [68Ga]-NeoB Negative, conventional imaging Total) was 1 and the Number of lesions ([4]; overall cancer N=19, Skin/Superficial, [68Ga]-NeoB Positive, conventional imaging Negative) was 0. It also gave a Number of lesions ([4]; overall cancer N=19, Skin/Superficial, [68Ga]-NeoB Positive, conventional imaging Positive) of 2, a Number of lesions ([4]; overall cancer N=19, Skin/Superficial, [68Ga]-NeoB Positive, conventional imaging Total) of 2 and a Number of lesions ([4]; overall cancer N=19, Skin/Superficial, [68Ga]-NeoB Total, conventional imaging Negative) of 0. The Number of lesions ([4]; overall cancer N=19, Skin/Superficial, [68Ga]-NeoB Total, conventional imaging Positive) was 3, the Number of lesions ([4]; overall cancer N=19, Skin/Superficial, [68Ga]-NeoB Total, conventional imaging Total) was 3 and the Number of lesions ([4]; overall cancer N=19, Soft Tissus/Visceral, [68Ga]-NeoB Negative, conventional imaging Positive) was 45. The Number of lesions ([4]; overall cancer N=19, Soft Tissus/Visceral, [68Ga]-NeoB Negative, conventional imaging Total) was 45, the Number of lesions ([4]; overall cancer N=19, Soft Tissus/Visceral, [68Ga]-NeoB Positive, conventional imaging Negative) was 25 and the Number of lesions ([4]; overall cancer N=19, Soft Tissus/Visceral, [68Ga]-NeoB Positive, conventional imaging Positive) was 50. For the same compound, the Number of lesions ([4]; overall cancer N=19, Soft Tissus/Visceral, [68Ga]-NeoB Positive, conventional imaging Total) was 75, the Number of lesions ([4]; overall cancer N=19, Soft Tissus/Visceral, [68Ga]-NeoB Total, conventional imaging Negative) was 25 and the Number of lesions ([4]; overall cancer N=19, Soft Tissus/Visceral, [68Ga]-NeoB Total, conventional imaging Positive) was 95. For the same compound, the Number of lesions ([4]; overall cancer N=19, Soft Tissus/Visceral, [68Ga]-NeoB Total, conventional imaging Total) was 120, the “lesions identified” value ([4]; regardless the cancer type, N=19) was 34.3% and the “lesions identified” value ([4]; soft tissue and visceral tissue regardless the cancer type) was 52.6%. The SUV ([5]; lesion / region of reference) was roughly 1 SUV and the SUV ([5]; lesion / spleen or MBP (aorta or heart)) was greater than 1 SUV.
